Experimental findings from US4555518A, “Fluoroalkoxy substituted benzimidazoles useful as gastric acid secretion inhibitors” (Byk Gulden Lomberg Chemische Fabrik GmbH, priority 1983, dated 1985) are described below.

What is called ED50 is the dose at which the effect has come halfway, by size or by number of responders. A high value points to weaker potency.

Test [1] has as its system gastric secretion (HCl) (rat stomach). In words: Shay rat: inhibition of gastric secretion (HCl) in the course of 4 h. In kind it is in vivo. As to conditions: for ED25 / ED50: Rattus norvegicus, po, perorally, rats; for ED25: dose reducing HCl secretion (4 h) by 25% vs control; for ED50: dose reducing HCl secretion (4 h) by 50% vs control; for Gastric secretion (rats): % inhibition of HCl secretion: after administration of the antiulcerous ED50, perorally, 4 h. How it is done:
(§1) In these experiments, the compounds according to the invention were compared with prior art compounds (A-D) of European Patent Applications Nos. 0 005 129 and 0 074 341. The compounds investigated are numbered as follows: The influence of the compounds of the prior art and the compounds according to the invention on gastric lesion formation induced by pyloric ligature (4 h; so-called Shay rat) and oral administration of 100 mg/kg of acetylsalicyclic acid, and the gastric secretion (HCl) in the course of 4 h in rats is shown in the following table. | *ED25 and ED50 = dose which reduces the lesion index or the HCL | secretion(4h) in the rat stomach by 25 and, respectively, 50% in the | treated group in comparison with the control group. | **after administration of the antiulcerous ED50. The antiulcerogenic action was tested by the so-called Shay rat method: Ulcers are caused in rats which have been fasted for 24 hours (female, 180-200 g, 4 animals per cage on a high grid) by pyloric ligature (under diethyl ether anesthesia) and oral administration of 100 mg/10 ml/kg of acetylsalicylic acid. The substances to be tested are administered orally (10 ml/kg) one hour before the pyloric ligature. The wound is closed by means of Michel clamps. 4 hours thereafter, the animals are sacrificed under ether anesthesia by Atlas dislocation and resection of the stomach. The stomach is opened longitudinally and attached to a cork plate, after the amount of gastric juice secreted (volume) and later its HCl content (titration with sodium hydroxide solution) have first been determined; the number and size (=diameter) of the ulcers present are determined under a stereomicroscope at 10-fold magnification. The product of the degree of severity (according to the following points scale) and number of ulcers serves as the individual lesion index. The reduction in the average lesion index of each treated group compared with the control group (=100%) serves as a measure of the antiulcerogenic effect.

The subject of test [2] is gastric lesion formation (rat stomach). Nature of the test: Shay rat: inhibition of gastric lesion formation induced by pyloric ligature and oral acetylsalicylic acid (protective effect on the stomach). As to conditions: perorally, rats, 1 h before pyloric ligature, 4 h, 100 mg/kg acetylsalicylic acid, dose reducing lesion index by 50% vs control. In kind it is in vivo. The procedure: as §1, with “group.” for “group. | **after administration of the antiulcerous ED50.”

On to `COc1ccc2[nH]c([S+]([O-])Cc3ncc(C)c(OC)c3C)nc2c1` (stereo not shown) [Serial No. B, 5-methoxy-2-[(4-methoxy-3,5-dimethyl-2-pyridylmethyl)sulfinyl]-1H--benzimidazole, reference compound], for which, in test [1], the ED25 stood at 1.9 mg/kg, the ED50 turned out to be 4.6 mg/kg and the “Gastric secretion (rats): % inhibition of HCl secretion” value amounted to 29%. Also, in test [2], the ED50 was 2.2 mg/kg.

In test [1], `COc1ccc2[nH]c(SCc3cc(OC)c(C)cn3)nc2c1` [Serial No. C, 5-methoxy-2-[(4-methoxy-5-methyl-2-pyridylmethyl)thio]-1H--benzimidazole, reference compound] came in with an ED25 above 60.6 mg/kg. The ED50 in test [2] is around 30 mg/kg.

On to `COc1ccc2[nH]c([S+]([O-])Cc3cc(OC)c(C)cn3)nc2c1` (stereo not shown) [Serial No. D, 5-methoxy-2-[(4-methoxy-5-methyl-2-pyridylmethyl)sulfinyl]-1H--benzimidazole, reference compound], for which, in test [1], the ED25 stood at 8 mg/kg, the ED50 was 18 mg/kg and the “Gastric secretion (rats): % inhibition of HCl secretion” value was found to be 10%. The compound also returned an ED50 in test [2] of around 5 mg/kg.
